Data taken from patent US20260325477A1, “METHODS OF TREATMENT USING DRY POWDER COMPOSITIONS OF TREPROSTINIL PRODRUGS” (Insmed Incorporated, priority 2024, published 2026).

How the values were obtained:
[1] = tested on: healthy adults; assay: Phase I single-dose safety and tolerability of TPIP in healthy adults; assay type: in vivo, human; details: single doses 112.5, 225, 450 and 675 μg
Protocol: Specifically, in a Phase I safety, tolerability, and PK study, healthy adults were administered single doses of 112.5 μg, 225 μg, 450 μg, and 675 μg of a compound of Formula (II).

[2] = Phase I pharmacokinetics of treprostinil after inhalation of the compound of Formula (II); assay type: in vivo, human; details: dose range of 112.5 μg to 675 μg
Protocol: The term “Cmax” means the maximum (or peak) treprostinil serum concentration measured after a compound of Formula (I) or (II), an enantiomer or diastereomer thereof, or a pharmaceutically acceptable salt thereof is administered to the lungs of a subject via a dry powder composition described herein. In addition, Cmax may be measured after a single administration of a compound of Formula (I) or (II), an enantiomer or diastereomer thereof, or a pharmaceutically acceptable salt thereof, described herein, or treprostinil Cmax may be measured at steady state. Unless stated otherwise, Cmax refers to the average treprostinil Cmax measured after a single administration among a population of subjects (e.g., a population of PH patients).
The term “AUC” means the area under the plasma concentration time curve for treprostinil, measured from time 0 to a certain time post-administration to the lungs of a subject, calculated by a combination of linear and logarithmic trapezoidal methods (Linear up/log down method). […] In addition, treprostinil AUC may be measured after a single administration or at steady state values. Unless stated otherwise, AUC refers to the average AUC measured after a single administration among a population of subjects (e.g., a population of PH patients). […]

[3] = tested on: subjects with pulmonary hypertension; assay: Phase 2 safety and efficacy study in subjects with pulmonary hypertension; assay type: in vivo, human
Protocol: In a Phase 2 safety and efficacy study, the following doses of were investigated in subjects with pulmonary hypertension, including pulmonary arterial hypertension: 80 μg, 160 μg, 240 μg, 320 μg, 400 μg, 480 μg, and 640 μg. In this study, patients were administered a starting dose of 80 μg of the TPIP and the dose was titrated up to 640 μg according to FIG. 2.

[4] = Nonclinical studies of TP: conversion, delivery, PK and PD
Text: (§1) Treprostinil palmitil (TP) is a hexadecyl ester prodrug of treprostinil (TRE). In the lung, TP is hydrolyzed by esterases to TRE and hexadecanol.

[5] = tested on: rodent model of PAH; assay: Rodent model of PAH; assay type: in vivo; details: inhibition of associated adverse pathology and pathophysiology
Text: as §1

[6] = Nonclinical safety and toxicology of TP; assay type: in vivo
Text: as §1

pharmacokinetic (PK) profile, dose linearity [2]: linear
PK and PD profile [4]: prolonged PK and PD profile
delivery of treprostinil to the lungs and systemic circulation [4]: sustained delivery
SMILES: CCCCCCCCCCCCCCCCOC(=O)COc1cccc2c1C[C@H]1C[C@@H](O)[C@H](CC[C@@H](O)CCCCC)[C@H]1C2 [treprostinil palmitil]
safety and tolerability [1]: safe and well-tolerated
serious or severe TEAEs [1]: no serious or severe TEAEs were observed
tolerability ([3]; 640 μg, highest dose administered in a clinical trial): well tolerated
tolerability ([3]; all doses, 80 μg to 640 μg): well tolerated
efficacy ([3]; higher doses): promising efficacy
conversion from the prodrug to the active drug, treprostinil ([4]; in vitro and in vivo): converted from the prodrug to the active drug, treprostinil
efficacy in a rodent model of PAH [5]: efficacious
preclinical safety or toxicological findings [6]: did not demonstrate concerning preclinical safety or toxicological findings
